Read-outs that look alike come from different tables or passages of the source.
Key:
[1] = test system: utrophin protein in C2C12 cells; assay: Utrophin western blot in C2C12 cells (endogenous protein expression); assay type: cell-based; conditions: 24 hours
Description: The 10 highest scoring hits were selected from this subset for performing in vitro validation. C2C12 cells were treated with 1 μM concentrations of the selected hits for 24 hours, followed by western blot evaluation of utrophin levels as an orthogonal assay for endogenous protein expression. […] Panobinostat, an FDA-approved non-selective HDAC inhibitor for cancer treatment, increased utrophin levels by 1.9-fold. […] AR-42 (S2244), another HDAC inhibitor with proven preclinical efficacy in contrasting cancer-induced cachexia, increased utrophin by 2.3-fold and had the second highest H2LPS. Consistent with the calculated HPS, the highest scoring hit, TSA (S1045), had also the highest magnitude of protein upregulation (3.9-fold) followed by PCI-24781 (S1090; 3.7-fold). Importantly, high H2LPS was generally correlated with confirmation in WB assays (FIG. 2E).
(§1) Total RNA was extracted from TA muscle samples with RNAeasy kit (Qiagen, USA) and reverse transcribed with random hexamers. qPCR was performed using Taqman probes for Utrophin (Assay ID Mm01168846_ml) and β-actin. Muscle tissue samples were lysed with TNEC buffer (50 mM Tris-HCl, pH 8.0; 150 mMNaCl; 1% NP40; 2 mM EDTA) buffer containing complete protease inhibitor cocktail (Roche, Basel, Switzerland). C2C12 cells were treated for 24 h with 1 μM concentrations of compounds from a fresh batch (3 wells for each compound), and cell samples were lysed with RIPA buffer with protease inhibitor cocktail. The experiment was repeated three independent times. 50-75 μg of total proteins from muscle tissues, or 4 μg of cell protein extracts, were resolved on a 3-8% Tris-Acetate gradient gel (NuPage; Invitrogen), transferred to PDVF or nitrocellulose membranes and mouse monoclonal anti-utrophin antibody MANCHO3 clone 8A4 (developed by Glenn E. Morris and obtained from the Developmental Studies Hybridoma Bank, Iowa) or a custom-made anti-UtrophinA rabbit polyclonal antibody (muscle tissue samples) generated and described previously by Chakkalakal et al., Nucleic Acids Res. 36, 826-838 (2008), which is incorporated herein by reference in its entirety.
(§2) TSA is a broad-spectrum HDAC inhibitor. […] To further validate in vitro the dose-dependent capacity of TSA to upregulate utrophin protein, C2C12 cells were treated for 24 hours with increasing concentrations of TSA (from 1 nM to 10 μM) (FIG. 3B). Consistent with the single-dose western blot validation experiments, utrophin protein levels were increased 4.3 times by 1 μM TSA. […] Some cytotoxicity was evident for TSA concentrations higher than 1 μM.

mdx mouse model of DMD = assay: Preclinical TSA treatment in the mdx mouse model of DMD; assay type: in vivo
Description: Four-week-old mdx mice (C57BL/10ScSn-DMDmdx/J) were injected intraperitoneally on alternate days with Trichostatin A (Wako Chemicals USA-Inc, Richmond, Va.; dose 30 μg/kg), or an equal volume of sterile PBS for three months. All animal experiments were approved by the Institutional Animal Care and Use Committee at the University of Pennsylvania School of Medicine.
Functional in vivo and ex vivo analyses including rotarod, EDL strength, and sensitivity to damage induced by lengthening contractions (ECC), were performed as described by Krag, et al. Proc. Natl. Acad. Sci. U.S.A. 101, 13856-13860 (2004) and Bogdanovich, S. et al. Functional improvement of dystrophic muscle by myostatin blockade. Nature 420, 418-421 (2002), each of which is incorporated herein by reference in its entirety. Following the procedure, muscles were flash-frozen in liquid nitrogen-cooled isopentane and stored at −80° C.
as §1
To test the ability of TSA to increase utrophin in vivo and improve the dystrophic phenotype, 4 week-old mdx mice were treated with i.p. injections of 30 μg/kg body weight TSA, on alternating days for a total of 3 months.

[2] = test system: 5′- and 3′-UTRs of human utrophin; assay: Screening assay: C2C12 stable reporter line, CMV-driven luciferase flanked by utrophin 5′ and 3′ UTRs; assay type: cell-based; conditions: for EC50: C2C12
Description: (§3) The construct for the HTS assay was generated by cloning the 5′- and 3′-UTRs of human utrophin into pGL4:50-hygro (Promega, Madison, Wis.) at the 5′ and 3′ of the luciferase coding sequence and has been described previously by Moorwood. […] For the counterscreening assay, the pGL4:50-hygro plasmid was used alone. Low passage C2C12 cells obtained from ATCC were transfected with either constructs, stably selected with 500 μg/mL hygromycin and subcloned using two rounds of serial dilutions to isolate single cell-derived colonies in a 96 wells plate format. […] The selected clones were cultured in presence of 100 μg/mL hygromycin B and were transferred to the HTS Facility at the University of Pennsylvania for implementation into a 384-wells format suitable for HTS.
(§4) The construct for generating the screening C2C12 cell line carrying the 5′ and 3′UTR of the human utrophin gene is described by Moorwood. […] Some compounds could increase light emission independently from the 5′ and 3′UTR regions, i.e., by activating the CMV promoter or increasing overall mRNA synthesis. Therefore, in order to distinguish such compounds, a counterscreening cell line stably expressing only the CMV-driven luciferase gene was generated (FIG. 1A). To determine optimal conditions for the implementation in a 384-wells high-throughput format, evaluated were DMSO tolerance, optimal cell density and incubation time (FIG. 5A-5C).
(§5) A first criterion for evaluating the performance of the selected hits was whether their activity was dose-dependent. After performing a dose-response analysis (5 nM to 10 μM) of each hit in the screening cell line, a clustering approach was applied (complete linkage with Euclidean distance measurement) to highlight similarities between compounds profiles. […] By modeling each dose-response trace with a 4-parameter logistic model applied to the Z— score values (FIG. 2B), the EC50 of each molecule was calculated.
(§6) Cells were allowed to attach overnight at 37° C., 5% CO2 in a humidified chamber. […] Compounds were added to a final concentration of 1 μM and 100 nM in 0.2% DMSO. Columns 1 and 23 were treated with 0.2% DMSO (negative control). Columns 2 and 24 were treated with 100 nM Panobinostat (positive control). Cells were incubated for 24 hours at 37° C., 5% CO2. […] Luminescence was measured on an EnVisionXcite Multilabel Plate Reader (PerkinElmer), using ultrasensitive luminescence measurement technology.

[3] = test system: HDAC activity and proliferation of cancer cells; conditions: depending on the particular cell line; cited from earlier work
[4] = test system: CMV-driven luciferase gene; assay: Counterscreening assay: C2C12 line stably expressing only the CMV-driven luciferase gene; assay type: cell-based; conditions: Mus musculus, C2C12, read-out: counterscreening EC50
Description: as §3, §4, §5, §6

C2C12 cells = assay: Cytotoxicity in C2C12 cells treated with increasing TSA concentrations; assay type: cell-based; conditions: 24 hours
Description: as §2

[5] = ex vivo EDL, treated mdx, normalized by cross sectional area
[6] = treated mdx, TSA 30 μg/kg i.p. alternate days, 3 months

CC(/C=C/C(=O)NO)=C\[C@@H](C)C(=O)c1ccc(N(C)C)cc1 [Trichostatin A]
Utrophin protein levels, fold increase ([1]; 1 μM, normalized to tubulin, vs 0.1% DMSO control): 3.9 fold
EC50 ([1]; Mus musculus, C2C12, 1 nM to 10 μM, read-out: EC50 for utrophin protein levels): 88 nM
utrophin protein levels increased ([1]; dose-response western blot, 1 μM TSA): 4.3 times
ECC force drop 1-5 (mdx mouse model of DMD; EDL, 5 consecutive eccentric contractions, treated mdx): 25.81 ± 4.46%
less force lost than control-treated muscles after the 5th ECC (mdx mouse model of DMD; EDL, series of 5 ECCs, FIG. 4G): 37%
Utrophin mRNA levels increased (mdx mouse model of DMD; TA muscle, qPCR, after TSA treatment): 4.9 fold
utrophin protein levels increased (mdx mouse model of DMD; TA muscle, western blot, after TSA treatment): 2 fold
myostatin or follistatin gene expression (mdx mouse model of DMD; TA muscles, FIG. 7): did not cause changes
lower number of centrally nucleated fibers (mdx mouse model of DMD; TSA-treated EDL muscles vs control): 30%
isometric twitch and tetanic strength of EDL muscles (mdx mouse model of DMD; before and after normalization by crossectional area): significantly higher
effect on body weight or the wet weight of skeletal muscles and organs (mdx mouse model of DMD; compared to control-treated mice): did not affect
EDL Tetanic force (mdx mouse model of DMD; ex vivo EDL, treated mdx): 351.9 ± 16.61 mN
EDL Twitch force (mdx mouse model of DMD; ex vivo EDL, treated mdx): 64.19 ± 4.22 mN
EDL Tetanic force (specific) (mdx mouse model of DMD; [5]): 166.0 ± 9.09 mN/mm^2
EDL Twitch force (specific) (mdx mouse model of DMD; [5]): 29.98 ± 1.84 mN/mm^2
serum creatine kinase or hydroxyproline content in TA and diaphragm muscles (mdx mouse model of DMD; mouse, in vivo): No significant changes
Diaphragm Hydroxyproline Diaphragm (mdx mouse model of DMD; treated mdx): 3.33 ± 0.22 µg/mg
Diaphragm Hydroxyproline TA (mdx mouse model of DMD; treated mdx): 0.90 ± 0.06 µg/mg
EDL CNF (centrally nucleated fibers) (mdx mouse model of DMD; treated mdx): 24.62 ± 2.30%
EDL CSA (cross sectional area) (mdx mouse model of DMD; treated mdx): 2.20 ± 0.13 mm^2
EDL L0 (muscle length) (mdx mouse model of DMD; treated mdx): 12.16 ± 0.20 mm
Serum CK (mdx mouse model of DMD; treated mdx): 7450 ± 2381 U/L
EDL muscle weight (mdx mouse model of DMD; [6]): 17.5 ± 0.4 mg
Gastrocnemius muscle weight (mdx mouse model of DMD; [6]): 213.0 ± 11.0 mg
Heart weight (mdx mouse model of DMD; [6]): 159.7 ± 5.2 mg
Kidneys weight (mdx mouse model of DMD; [6]): 532.3 ± 25.8 mg
Liver weight (mdx mouse model of DMD; [6]): 1179.0 ± 36.4 mg
Quadriceps muscle weight (mdx mouse model of DMD; [6]): 234.6 ± 8.7 mg
Soleus muscle weight (mdx mouse model of DMD; [6]): 12.8 ± 0.4 mg
Tibialis Anterior (TA) muscle weight (mdx mouse model of DMD; [6]): 66.1 ± 1.5 mg
Body weight (mdx mouse model of DMD; treated mdx, TSA 30 μg/kg i.p. alternate days, 3 months, mean ± SEM): 30.2 ± 0.5 g
rotarod test performance (mdx mouse model of DMD; treated vs control mdx): performed significantly better than control mdx
EC50 ([2]; 4-parameter logistic fit of Z-scores, 24 h, no unit in table (0.013 = 13 nM), read-out: EC50 screen): 13 nM
EC50 ([2]; read-out: EC50 score (1 to 4)): < 50 nM
EC50 ([2]; read-out: screening EC50): 13 nM
Upper-lower limits scoren ([2]; difference between upper and lower boundaries of the fitted dose-response screening curve): 34.53
Fold diff ([2]; fold difference between the EC50s of screening and counterscreening): 119.82
IC50 in vitro [3]: nM to μM range
EC50 [4]: 1300 nM
concentrations at which some cytotoxicity was evident (C2C12 cells): higher than 1 μM
